Reference: US10954305B2 (Immunomedics, Inc., priority 2016, dated 2021)

Tests used:
p21^Waf1/Cip1 in Calu-3 = assay: p21Waf1/Cip1 expression; type: cell-based, human
Text: SN-38 is known to activate several signaling pathways in cells, leading to apoptosis (e.g., Cusack et al., 2001, Cancer Res 61:3535-40; Liu et al. 2009, Cancer Lett 274:47-53; Lagadec et al., 2008, Br J Cancer 98:335-44). Our initial studies examined the expression of 2 proteins involved in early signaling events (p21^Waf1/Cip1 and p53) and 1 late apoptotic event [cleavage of poly-ADP-ribose polymerase (PARP)] in vitro (not shown).

Capan-1 tumors = assay: CL2 vs CL2A linker, Capan-1 xenograft; type: in vivo, mice; conditions: 0.2 mg/kg SN-38 twice weekly × 4 weeks
Method: FIG. 4C. […] Capan-1 mice (N=10) were treated with 0.2 mg/kg ADC and tumors measured weekly.

[1] = biological target: T1, Trop-2 on multiple cell lines (Homo sapiens, UniProt P09758); assay: in vitro cell binding
T1 construct: endogenous in cells; host or cells: human solid tumour cell lines
T1 sequence (P09758 27-323): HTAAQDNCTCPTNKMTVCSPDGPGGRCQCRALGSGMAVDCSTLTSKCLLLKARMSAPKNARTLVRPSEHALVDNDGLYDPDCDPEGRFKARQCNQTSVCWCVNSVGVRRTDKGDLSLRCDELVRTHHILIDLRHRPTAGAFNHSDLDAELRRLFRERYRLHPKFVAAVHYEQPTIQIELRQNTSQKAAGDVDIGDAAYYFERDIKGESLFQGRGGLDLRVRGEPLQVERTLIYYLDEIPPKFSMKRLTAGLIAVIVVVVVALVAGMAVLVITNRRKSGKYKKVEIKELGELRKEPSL
Method: LumiGLO Chemiluminescent Substrate System (KPL, Gaithersberg, Md.) was used to detect antibody binding to cells. Briefly, cells were plated into a 96 black-well, flat-clear-bottom plate overnight. Antibodies were serially diluted 1:2 and added in triplicate, yielding a concentration range from 0.03 to 66.7 nM. After incubating for 1 h at 4° C., the media was removed and the cells washed with fresh cold media followed by the addition of a 1:20,000 dilution of goat-antihuman horseradish peroxidase-conjugated secondary antibody (Jackson Immunoresearch, West Grove, Pa.) for 1 h at 4° C. The plates were again washed before the addition of the LumiGLO reagent. Plates were read for luminescence using an Envision plate reader (Perkin Elmer, Boston Mass.). Data were analyzed by non-linear regression to determine the equilibrium dissociation constant (KD). Statistical comparisons of KD-values were made with Prism GraphPad Software (v4.03) (Advanced Graphics Software, Inc.; Encinitas, Calif.) using an F-Test on the best-fit curves for the data. Significance was set at P<0.05.

BxPC-3 [2] = assay: dsDNA breaks, γH2AX flow cytometry; type: cell-based, human; conditions: 20 μg/ml for 30 min
Method: For drug activity testing, BxPC-3 cells were seeded in 6-well plates at 5×10^5 cells/well and held at 37° C. overnight. […] The following morning, cells were trypsinized briefly, spun down, stained with Fixable Viability Stain 450 (BD Biosciences, San Jose, Calif.), washed with 1% BSA-PBS, and then fixed in 4% formalin for 15 min, washed again and permeabilized in 0.15% Triton-X100 in PBS for another 15 min. After washing twice with 1% BSA-PBS, cells were incubated with mouse anti-γH2AX-AF488 (EMD Millipore Corporation, Temecula, Calif.) for 45 min at 4° C. The signal intensity of γH2AX was measured by flow cytometry using a BD FACSCanto (BD Biosciences, San Jose, Calif.).

Capan-1 xenografts = assay: combined radioimmunotherapy and ADC, Capan-1 xenograft; type: in vivo, nude mice
Text: The present study examined combinations of ^90Y-hPAM4 IgG with RS7-SN-38 in nude mice bearing 0.35 cm^3 subcutaneous xenografts of the human pancreatic cancer cell line, Capan-1. […] These studies provide the first evidence that combined radioimmunotherapy and ADC enhances efficacy at safe doses.

p53 in BxPC-3 and Calu-3 = assay: p53 expression; type: cell-based, human
Method: In addition, p53 expression in cells exposed to the ADC was higher in both cell lines compared to SN-38 (not shown). […] In terms of later apoptotic events, cleavage of PARP was evident in both cell lines when incubated with either SN-38 or the conjugate (not shown). […] The higher degree of cleavage with free SN-38 over the ADC was consistent with the cytotoxicity findings.

MDA-MB-468 = assay: ADCC, LDH-release assay; type: cell-based, human; conditions: 33.3 nM, E:T 50:1
Method: Briefly, target cells (MDA-MB-468, NIH:OVCAR-3, or BxPC-3) were plated at 1×10^4 cells/well in a 96-well, black, flat-bottom plate and incubated overnight. The next day, peripheral blood mononuclear effector cells (PBMCs) were freshly isolated from a donor and added to assigned wells on the reaction plate at an E:T ratio of 50:1. Acquisition of human PBMCs was done under the approval of the New England Institutional Review Board (Newton, Mass.). Test reagents were added to their assigned wells at a final concentration of 33.3 nM. One set of wells received ADCC assay medium alone for background control and another set of wells received cells alone plus TritonX100 for maximum cells lysis control. The plate was incubated for 4 h at 37° C. After 4 h, target cell lysis was assessed by a homogenous fluorometric LDH release assay (Cyto Tox-One Homogenous Membrane Integrity Assay; Promega, Cat. G7891).
The plates were read (544 nm-590 nm) using an Envision plate reader (PerkinElmer LAS, Inc.; Shelton, Conn.). Data were analyzed by Microsoft Excel. Percent specific lysis was calculated as follows: […]

[3] = mouse, in vivo, iv, 200 ug
Text: ELISA was utilized to determine serum concentrations of total hRS7 IgG by competing for the binding to an anti-hRS7 IgG idiotype antibody with a horseradish peroxidase conjugate of hRS7. […] Pharmacokinetic (PK) parameters were computed by noncompartmental analysis using Phoenix WinNonlin software (version 6.3; Pharsight Corp., Mountainview, Calif.).

[4] = test system: SK-MES-1 human squamous cell lung tumors; assay: SK-MES-1 xenograft therapy; type: in vivo, nude mice; conditions: 0.4 mg/kg; 28 days
Method: Therapeutic efficacy of hRS7-SN-38 ADC in several solid tumor-xenograft disease models.
Tumor volume (TV) was determined by measurements in 2 dimensions using calipers, with volumes defined as: L×w^2/2, where L is the longest dimension of the tumor and w is the shortest.

BxPC-3 [5] = assay: ADCC of hRS7-ADCs vs hRS7 IgG; type: cell-based, human; conditions: 33.3 nM; effector to target ratio 100:1
Method: The ADCC activity of various hRS7-ADC conjugates was determined in comparison to hRS7 IgG (FIG. 3). PBMCs were purified from blood purchased from the Blood Center of New Jersey. A Trop-2-positive human pancreatic adenocarcinoma cell line (BxPC-3) was used as the target cell line with an effector to target ratio of 100:1. […] All were used at 33.3 nM.

Substance | p21^Waf1/CiP1 expression over free SN-38 (p21^Waf1/Cip1 in Calu-3) | mice tumor-free at end of study (day 140) (Capan-1 tumors) | KD [1] | Mean Fluorescence Intensity (γH2AX) (BxPC-3 [2]) | mice tumor-free after 20 weeks (Capan-1 xenografts; ADC alone) | time to upregulation of p53 (p53 in BxPC-3 and Calu-3) | specific lysis (MDA-MB-468) | MRT, carrier hRS7 antibody [3] | alpha half-life, hRS7 IgG [3] | beta half-life, hRS7 IgG [3] | half-life, intact conjugate [3] | tumor volume (TV) [4] | Percent Positive (γH2AX) (BxPC-3 [2]) | anti-tumor activity of unconjugated antibody (Capan-1 xenografts; given alone) | specific lysis (ADCC) (BxPC-3 [5])
IMMU-132 | more than 2 fold | 50% | in the sub-nanomolar range | 5349 ± 234 | 1 of 10 | ≤ 24 h | 8.6±2.6% | ~300 h | approximately 3 h | ~200 h | 11 h |  |  |  | 
hRS7 IgG |  |  | in the sub-nanomolar range | 2297 ± 18 |  | 48 h | 29.8±2.6% |  | approximately 3 h | ~200 h |  | 1.30±1.08 cm^3 | 13.0 ± 0.6% | Neither unconjugated hPAM4 nor hRS7 antibodies had anti-tumor activity when given alone | 8.5%
